The compounds below were run on CAL-148 (assay: normalised response (% of control), CellTiter-Glo; higher = more viable cells (100 = DMSO, 0 = benzethonium chloride kill control)). Details: incubation time: 72 h.
Experimental: (§1)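 DSRT, 72 h incubation, CellTox Green / CellTiter-Glo readout. Signal is normalised to DMSO and benzethonium chloride controls. Value is the normalised response at the highest dose.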

| SMILES | normalised response [%] |
| --- | --- |
| O=C1NC(=O)[C@@H](c2cn3c4c(cccc24)CCC3)[C@@H]1c1c[nH]c2ccccc12 [Tivantinib] (1000 nM) | 41.5 |
| O=C(O)CCCc1ccc(N(CCCl)CCCl)cc1 [Chlorambucil] (10000 nM) | 103 |

These compounds were tested on CAL-120 in the same assay as above. Details: incubation time: 72 h.
Experimental: as §1

| SMILES | normalised response [%] |
| --- | --- |
| NS(=O)(=O)OC[C@@H]1C[C@@H](n2ccc3c(N[C@H]4CCc5ccccc54)ncnc32)C[C@@H]1O [Pevonedistat] (10000 nM) | 47.8 |
| CN(C)C[C@@H]1CCn2cc(c3ccccc32)C2=C(C(=O)NC2=O)c2cn(c3ccccc23)CCO1 [Ruboxistaurin] (10000 nM) | 55.2 |
| C[C@]12CC[C@H](O)CC1=CC[C@@H]1[C@@H]2CC[C@]2(C)C(c3cccnc3)=CC[C@@H]12 [Abiraterone] (5000 nM) | 103 |
| CC(C)c1c(C(=O)Nc2ccccc2)c(-c2ccccc2)c(-c2ccc(F)cc2)n1CC[C@@H](O)C[C@@H](O)CC(=O)O [Atorvastatin] (10000 nM) | 47.4 |
| Cn1c(=O)n(-c2ccc(C(C)(C)C#N)cc2)c2c3cc(-c4cnc5ccccc5c4)ccc3ncc21 [Dactolisib] (1000 nM) | 26.2 |
| Nc1ncnc2c1c(COc1cccc(Cl)c1)nn2C1CCOCC1 (10000 nM) | 107 |
| O=C1NC(=O)[C@@H](c2cn3c4c(cccc24)CCC3)[C@@H]1c1c[nH]c2ccccc12 [Tivantinib] (1000 nM) | 49.4 |
| O=C(O)CCCc1ccc(N(CCCl)CCCl)cc1 [Chlorambucil] (10000 nM) | 100 |

These compounds were tested on MFM-223 in the same assay as above. Details: incubation time: 72 h.
Experimental: as §1

| SMILES | normalised response [%] |
| --- | --- |
| NS(=O)(=O)OC[C@@H]1C[C@@H](n2ccc3c(N[C@H]4CCc5ccccc54)ncnc32)C[C@@H]1O [Pevonedistat] (10000 nM) | 49.9 |
| CN(C)C[C@@H]1CCn2cc(c3ccccc32)C2=C(C(=O)NC2=O)c2cn(c3ccccc23)CCO1 [Ruboxistaurin] (10000 nM) | 34.9 |
| C[C@]12CC[C@H](O)CC1=CC[C@@H]1[C@@H]2CC[C@]2(C)C(c3cccnc3)=CC[C@@H]12 [Abiraterone] (5000 nM) | 103 |
| CC(C)c1c(C(=O)Nc2ccccc2)c(-c2ccccc2)c(-c2ccc(F)cc2)n1CC[C@@H](O)C[C@@H](O)CC(=O)O [Atorvastatin] (10000 nM) | 76.1 |
| Cn1c(=O)n(-c2ccc(C(C)(C)C#N)cc2)c2c3cc(-c4cnc5ccccc5c4)ccc3ncc21 [Dactolisib] (1000 nM) | 42.3 |
| Nc1ncnc2c1c(COc1cccc(Cl)c1)nn2C1CCOCC1 (10000 nM) | 96.8 |
| O=C1NC(=O)[C@@H](c2cn3c4c(cccc24)CCC3)[C@@H]1c1c[nH]c2ccccc12 [Tivantinib] (1000 nM) | 60 |
| O=C(O)CCCc1ccc(N(CCCl)CCCl)cc1 [Chlorambucil] (10000 nM) | 108 |

These compounds were tested on MDA-MB-468 in the same assay as above. Details: incubation time: 72 h.
Experimental: as §1

| SMILES | normalised response [%] |
| --- | --- |
| NS(=O)(=O)OC[C@@H]1C[C@@H](n2ccc3c(N[C@H]4CCc5ccccc54)ncnc32)C[C@@H]1O [Pevonedistat] (10000 nM) | 32.9 |
| CN(C)C[C@@H]1CCn2cc(c3ccccc32)C2=C(C(=O)NC2=O)c2cn(c3ccccc23)CCO1 [Ruboxistaurin] (10000 nM) | 1.42 |
| C[C@]12CC[C@H](O)CC1=CC[C@@H]1[C@@H]2CC[C@]2(C)C(c3cccnc3)=CC[C@@H]12 [Abiraterone] (5000 nM) | 99.3 |
| CC(C)c1c(C(=O)Nc2ccccc2)c(-c2ccccc2)c(-c2ccc(F)cc2)n1CC[C@@H](O)C[C@@H](O)CC(=O)O [Atorvastatin] (10000 nM) | 19.1 |
| Cn1c(=O)n(-c2ccc(C(C)(C)C#N)cc2)c2c3cc(-c4cnc5ccccc5c4)ccc3ncc21 [Dactolisib] (1000 nM) | 31.5 |
| Nc1ncnc2c1c(COc1cccc(Cl)c1)nn2C1CCOCC1 (10000 nM) | 92.3 |
| O=C1NC(=O)[C@@H](c2cn3c4c(cccc24)CCC3)[C@@H]1c1c[nH]c2ccccc12 [Tivantinib] (1000 nM) | 29.7 |
| O=C(O)CCCc1ccc(N(CCCl)CCCl)cc1 [Chlorambucil] (10000 nM) | 94.1 |

What follows are compounds tested on CAL-85-1 in the same assay as above. Details: incubation time: 72 h.
Experimental: as §1

| SMILES | normalised response [%] |
| --- | --- |
| NS(=O)(=O)OC[C@@H]1C[C@@H](n2ccc3c(N[C@H]4CCc5ccccc54)ncnc32)C[C@@H]1O [Pevonedistat] (10000 nM) | 39.7 |
| CN(C)C[C@@H]1CCn2cc(c3ccccc32)C2=C(C(=O)NC2=O)c2cn(c3ccccc23)CCO1 [Ruboxistaurin] (10000 nM) | 1.43 |
| C[C@]12CC[C@H](O)CC1=CC[C@@H]1[C@@H]2CC[C@]2(C)C(c3cccnc3)=CC[C@@H]12 [Abiraterone] (5000 nM) | 112 |
| CC(C)c1c(C(=O)Nc2ccccc2)c(-c2ccccc2)c(-c2ccc(F)cc2)n1CC[C@@H](O)C[C@@H](O)CC(=O)O [Atorvastatin] (10000 nM) | 52.7 |
| Cn1c(=O)n(-c2ccc(C(C)(C)C#N)cc2)c2c3cc(-c4cnc5ccccc5c4)ccc3ncc21 [Dactolisib] (1000 nM) | 43 |
| Nc1ncnc2c1c(COc1cccc(Cl)c1)nn2C1CCOCC1 (10000 nM) | 90.2 |
| O=C1NC(=O)[C@@H](c2cn3c4c(cccc24)CCC3)[C@@H]1c1c[nH]c2ccccc12 [Tivantinib] (1000 nM) | 30.6 |
| O=C(O)CCCc1ccc(N(CCCl)CCCl)cc1 [Chlorambucil] (10000 nM) | 96.2 |

These compounds were tested on BT-549 in the same assay as above. Details: incubation time: 72 h.
Experimental: as §1

| SMILES | normalised response [%] |
| --- | --- |
| NS(=O)(=O)OC[C@@H]1C[C@@H](n2ccc3c(N[C@H]4CCc5ccccc54)ncnc32)C[C@@H]1O [Pevonedistat] (10000 nM) | 27 |
| CN(C)C[C@@H]1CCn2cc(c3ccccc32)C2=C(C(=O)NC2=O)c2cn(c3ccccc23)CCO1 [Ruboxistaurin] (10000 nM) | 10.1 |
| C[C@]12CC[C@H](O)CC1=CC[C@@H]1[C@@H]2CC[C@]2(C)C(c3cccnc3)=CC[C@@H]12 [Abiraterone] (5000 nM) | 96.4 |

— the supplement of paper PMC4862054
